Consider one molecule from PMC10384675, “Novel Thiazolidine-2,4-dione-trimethoxybenzene-thiazole Hybrids as Human Topoisomerases Inhibitors” (Pharmaceuticals, 2023).

Assay [1] deals with MCF-7 breast cancer cells. Briefly: MTT cell viability assay, MCF-7. The format is cell-based, human. As to the method:
(§1) All of the synthesized compounds (7a–f) were studied to test their anticancer activity toward the estrogen receptor-positive (ER+) MCF-7 and the triple-negative MDA-MB-231 breast cancer cells (ER-, PR- and HER-2/Neu not overexpressed) and A2058 melanoma cells. Cells were incubated for 72 h with different concentrations of the compounds, and then the viability was checked by the MTT assay. […] Moreover, we checked the cytotoxicity of all of the synthesized compounds against the human MCF-10A non-malignant breast epithelial cells and mouse BALB/3T3 embryonic fibroblasts, in order to evaluate their selectivity on cancer cells.
(§2) The used cell lines (breast cancer cell lines MCF-7 and MDA-MB-231, melanoma cell line A2058 and human mammary epithelial cell line MCF-10A) were obtained from American Type Culture Collection (ATCC, Manassas, VA, USA) and cultured as already reported. The mouse BALB/3T3 embryonic fibroblasts were also purchased from American Type Culture Collection (ATCC, Manassas, VA, USA) and cultured in DMEM high glucose supplemented with 10% bovine calf serum (BCS) and 100 U mL^−1 penicillin/streptomycin.
(§3) MTT assay (Sigma Aldrich (St. Louis, MO, USA)) was performed for evaluating the in vitro anticancer activities of the compounds, as previously indicated. Different concentrations (0.1, 1, 10, 25, 50, and 100 μM) of the compounds were employed, with a 72 h endpoint. IC50 values were obtained from the percent (%) of control using GraphPad Prism 9 (GraphPad Software, La Jolla, CA, USA).
For orientation: Tetrazolium dyes change colour on reduction, which living cells bring about.

Assay [2] concerns mouse BALB/3T3 embryonic fibroblasts. Briefly: MTT cytotoxicity assay, BALB/3T3. The class given is cell-based. To be noted: 72 h, normal cells. Here is the method:
as §1, §2, §3

The test system of assay [3] is MCF-7 cells. Put plainly: Mitochondria and cytochrome c immunostaining. The format is cell-based, human. To be noted: at IC50 value, 24 h. The source says:
In order to establish whether the observed cell death could be ascribed to the induction of the apoptotic pathway, we performed immunostaining assays using an anti-cytochrome c (cyt c) antibody and the mitochondrial probe MitoTracker Deep Red FM, which would allow us to verify whether cyt c was released from mitochondria to the cell cytoplasm or not. In Figure 6, panels B,C, it is possible to visualize the intracellular localization of cyt c (green fluorescence) and mitochondria (red fluorescence). […] Indeed, as visible in the overlay channel (panel D), the two fluorescence signals (red and green) were no longer superimposable.
Cells grown on glass coverslips in full medium were serum-deprived for 24 h, then the compound (or only vehicle) was added (24 h, 7e at its IC50 value). Next, cells were incubated with a staining solution containing MitoTracker® Deep Red FM probe (MitoTracker® Mitochondrion-Selective Probes, Invitrogen European Headquarters, Paisley PA4 9RF, UK; fluorescence excitation = 644, fluorescence emission = 665) for 20 min, at 37 °C. After a PBS wash, cells were fixed (cold methanol, 15 min at −20 °C) and incubated with the mouse anti-cytochrome c (556 433) primary antibody, purchased from BD, diluted in the blocking solution (4 °C/overnight), as described in [60]. […]

In a further assay the test system is A2058 melanoma cells. Briefly: MTT cell viability assay, A2058. The class given is cell-based. To be noted: Homo sapiens, 72 h. As to the method: as §1, §2, §3
A further assay has as its system caspase-8. Briefly: Caspase-Glo assay, caspase-8. To be noted: MCF-7 cells, at IC50 value, 24 h, vs vehicle. The class given is cell-based, human. Here is the method:
Once established that mitochondria were damaged and cyt c released into the cytoplasm, we evaluated the ability of compound 7e treatment (used at its IC50 value) in modulating caspase activity.
The caspase-Glo Assay (Caspase-Glo® 3/7, 8 and 9 Assay Systems, Promega Corporation, Madison, WI) was used to detect caspase-3/7, -8 and -9 activities, as reported in [82]. Briefly, cells were grown in white-walled 96-well plates, treated with the compound, and 100 µL of each […] was added.
Figure 7 Caspase activity in MCF-7 cells. […] Columns mean, bars SD; * p < 0.001; n.s., not significant (treated vs. CTRL).

In assay [4] the test system is human MCF-10A non-malignant breast epithelial cells. Put plainly: MTT cytotoxicity assay, MCF-10A. The class given is cell-based. To be noted: 72 h, normal cells. As to the method: as §1, §2, §3
Assay [5] deals with MCF-7 cells. Briefly: TUNEL assay. To be noted: at IC50 value, 24 h. The format is cell-based, human. The source says:
Numerous data in the literature indicate that topoisomerase inhibitors are among the most efficient inducers of apoptosis. […] As reference molecule, we adopted ellipticine for this assay, also. […] In contrast, no fluorescence was visible in the DMSO-treated cells used as negative control (Figure 5, CTRL, panel B). These outcomes indicated the ability of the studied compound to induce DNA damage, as ellipticine did, triggering cancer cells death.
Cell apoptosis was detected by means of the TUNEL assay, following the manufacturer’s protocols (CF™488A TUNEL Assay Apoptosis Detection Kit, Biotium, Hayward, CA, USA), with few modifications, as already reported. DAPI staining (0.2 μg/mL, Sigma Aldrich, Milan, Italy) was used for cell nuclei. A fluorescence microscope (Leica DM 6000) was used for the observations at 20× magnification. LAS-X software allowed the acquisition and processing of all of the images, which were representative of three separate experiments.
Figure 5 TUNEL assay. MCF-7 breast cancer cells were exposed to compounds 7e and ellipticine (E) at their IC50 values, or to the vehicle (DMSO) for 24 h. Then, they were further processed, as reported in Section 4, and imaged under a fluorescence microscope (20× magnification). Panels (A), DAPI λex,em= 350 nm/460 nm; panels (B), CF^TM488A, λex,em = 490 nm/515 nm; panels (C) show the merge channel.

Each structure is given as a SMILES string. Some results are limits rather than exact numbers.

For the molecule `COc1cc(/C=C2\SC(=O)N(CC(=O)Nc3nc(-c4ccc(Br)cc4)cs3)C2=O)cc(OC)c1OC` [compound 7e, (Z)-2-(5-(3,4,5-Trimethoxybenzylidene)thiazolidin-2,4-dion-3-yl)-N-(4-(4-bromophenyl)thiazol-2-yl)acetamide], the half-inhibitory concentration (IC50) (usually the concentration needed to halve the response being measured) in assay [1] (Homo sapiens, MCF7, MTT, 72 h) was 3.1 ± 0.6 µM; in assay [2], 35 ± 0.6 µM; with A2058 melanoma cells it was 8.4 ± 0.9 µM; in assay [4], over 100 µM. In addition, the “fold more active against MCF-7 than against mouse BALB/3T3 embryonic fibroblasts” value in assay [1] (MCF-7 vs BALB/3T3 IC50) was “about 11 fold”. Further, in the assay on MCF-7 cells [3], the “cytochrome c release from mitochondria into the cytoplasm” value is recorded as “cyt c was released into the cell cytoplasm”. Besides, the caspase-8 activity result in the assay on caspase-8 is “no change”. The “apoptosis (TUNEL, green nuclear fluorescence)” value in the assay on MCF-7 cells [5] is “had undergone the apoptotic process”.
